Measured values taken from patent publication US6372740B1, “2-aryl-8-oxodihydropurine derivative, process for the producing the same, medicinal compositions containing the same, and intermediates thereof” (Dainippon Pharmaceutical Co., Ltd., priority 1997, dated 2002).

Experiments:
[1] = molecular target: T1, BZω3 receptor (Rattus norvegicus, UniProt P16257); assay: BZω3 (peripheral) benzodiazepine receptor binding assay, [3H] 4'-chlorodiazepam (Ro 5-4864); details: rat kidney membrane, [3H] Ro 5-4864 0.5 nM, 150 minutes at 0° C.; read-out: ω3 IC50
T1 construct: from tissue; host or cells: rat (Wistar) kidney membrane fraction
Method: Experiment 1: Central (ω1,ω2) and Peripheral (ω3) Benzodiazepine Receptor Binding Assays
BZω1 and BZω2 receptor binding assays and the preparation of receptor membrane fractions therefor were carried out according to the method of Stephens, D. N. et al. [cf., J. Pharmacol. Exp. Ther., 253, 334-343 (1990)], and BZω3 receptor binding assay and the preparation of receptor membrane fraction therefor were done according to the method of Schoemaker, H. [cf, J. Pharmacol. Exp. Ther., 225, 61-69 (1983)] each with slight modification.
Receptor membrane fractions for ω1, ω2 and ω3 were prepared from the cerebellum (ω1), spinal cord (ω2) or kidney (ω3) in 7-8 week old male rats of Wistar strain, respectively, by the procedure described below.
After the cerebellum or spinal cord was homogenized with 20 volumes of ice-cold 50 mM Tris-citrate buffer (pH 7.1), the homogenate was centrifuged for 15 minutes at 40,000 g. The pellet obtained was washed 4 times by the same procedure, and frozen and stored for 24 hours at −60° C. The resulting pellet, after being thawed, washed with the buffer and centrifuged, was suspended in the buffer I for the binding assay (50 mM Tris-HCl buffer containing 120 mM NaCl, 5 mM KCl, 2 mM CaCl2 and 1 mM MgCl2; pH 7.4) and the suspension thus obtained (containing 1 g wet tissue/40 ml) was used for the BZω1 and BZω2receptor binding assays. On the other hand, the kidney was homogenized with 20 volumes of the ice-cold buffer II for the binding assay (50 mM Na-K phosphate buffer containing 100 mM NaCl; pH 7.4), and the mixture was filtered through 4 sheets of gauze, and centrifuged for 20 minutes at 40,000 g. The pellet obtained was suspended in the buffer II and the suspension (containing 1 g wet tissue/100 ml) was used for the binding assay as BZω3 receptor membrane source.
[^3H] Flumazenil (Ro 15-1788) (final concentration: 0.3 nM for ω1, and 1 nM for ω2) and flunitrazepam (final concentration: 10 μM) were used for the BZω1 or BZω2 receptor binding assays as the isotope-labeled and unlabeled ligands, respectively. For the BZω3 receptor binding assay, [^3H] 4′-chlorodiazepam (7-chloro-1,3-dihydro-1-methyl-5-(4-chlorophenyl)-2H-1,4-diazepin-2-one) (Ro 5-4864) (final concentration: 0.5 nM) and diazepam (final concentration: 100 μM) were used as the isotope-labeled and unlabeled ligands, respectively. Incubation was performed for 30 minutes at 37° C. in the BZω1 or BZω2 receptor binding assays, and for 150 minutes at 0° C. in the BZω3 receptor binding assay. The BZω1 or BZω2 receptor binding assays were carried out in the presence of bicuculline (final concentration: 100 μM).
The binding assay was performed by the following procedure. After adding each test compound at certain known concentrations, a [^3H] ligand, and the buffer I or II to each test tube, each assay was started by addition of membrane preparation (total volume of 1 ml). After incubation, the assay was terminated by filtration with suction through a Whatman GF/B glass fiber filter using a cell harvester (Brandel, USA). The filters were rapidly washed 3 times with 5 ml of ice-cold 50 mM Tris-HCl buffer (pH 7.7) for ω1 and ω2, or the buffer II for ω3, and transferred to scintillation vials containing 10 ml liquid scintillation cocktail (ACS-II, Amersham, USA). After being allowed to stand for a specific period, retained radioactivity was counted by a liquid scintillation spectrometer. Specific binding of [^3H] ligands was calculated as the difference between amounts of radioactivity bound in the presence and absence of excess unlabeled ligands. The concentration of the test compounds causing 50% inhibition of specific binding of the [3H] ligand (IC50) was determined by probit analysis.

[2] = tested on: mice (stay in light compartment); assay: Light and dark box test (anti-anxiety effect); assay type: in vivo; details: Mus musculus, po, 0.5 h, male Std-ddY mice, 30 minutes before test, Dunnett test 5%, read-out: Anti-anxiety effect MED (minimum effective dose)
Source text: Experiment 2: Light and Dark Box Test (Anti-anxiety Effect)
Anti-anxiety effect of test compounds was examined in a box with light and dark compartments according to the method of Crawley, J. and Goodwin, F. K. [cf., Pharmacol. Biochem. Behav., 13, 167-170 (1980)] with slight modification.
Light and dark box test is a useful, simple and handy method for behaviorally and pharmacologically examining anti-anxiety effect of the drugs, by utilizing the habit of rodents such as mice and rats, etc. which prefer to stay in a dark place, and regarding as positive drug effect the increase of the relative stay of the animals in the light compartment which is an uncomfortable place for the animals. A number of drugs such as cholecystokinin B type receptor antagonists and benzodiazepine drugs, show positive effect in this test.
Light and dark box test was carried out using the test box device (35×17×15 cm) which comprises: a light compartment (20×17×15 cm) consisting of transparent acrylic plates and highly illuminated by an incandescent lamp (1,700 lux); a dark compartment (15×17×15 cm) being made of black acrylic plates connected to the light compartment; and at the boundary of compartments, an opening (4.4×5.0 cm) in which mice can go through freely between two compartments.
Male mice of Std-ddY strain weighing 25-30 g were used in a group of 10. Each trial was started by placing a mouse in the center of the light compartment 30 minutes after oral administration of a test compound, and the time spent by the mouse in the light compartment during a 5 minute observation period was measured, and the rate of the stay of mice in the light compartment to the whole time spent in the experiment was calculated (rate of light compartment stay, %).
The anti-anxiety effect of the test compound was represented by the minimum effective dose (MED) at which the increasing rate of the relative stay in the light compartment was regarded as statistically significant (Dunnett test, significance level: 5%). 4.

CCN(Cc1ccccc1)C(=O)Cn1c(=O)n(C)c2cnc(-c3ccc(Cl)cc3)nc21 [Example 147, N-benzyl-N-ethyl-7,8-dihydro-7-methyl-8-oxo-2-(4-chlorophenyl)-9H-purin-9-acetamide]
IC50 [1]: 1.1 nM | minimal effective dose [2]: 1 to 3 µg/kg | melting point: 172 to 173 °C

CCn1c(=O)n(CC(=O)N(C)Cc2ccccc2)c2nc(-c3ccccc3)ncc21 [Example 140]
IC50 [1]: 0.87 nM | melting point: 147 to 149 °C

CCn1c(=O)n(CC(=O)N(C)c2cccc(Cl)c2)c2nc(-c3ccccc3)ncc21 [Example 161]
IC50 [1]: 1.1 nM | melting point: 205 to 207 °C

CCCN(CCC)C(=O)Cn1c(=O)n(C)c2nc(-c3ccccc3)ncc21 [Example 26]
IC50 [1]: 2.3 nM | melting point: 133 to 134 °C

CCN(C(=O)Cn1c(=O)n(C)c2nc(-c3ccc(OC)cc3)ncc21)c1ccccc1 [Example 13]
IC50 [1]: 2.9 nM | melting point: 179 to 181 °C

COc1ccc(N(C)C(=O)Cn2c(=O)[nH]c3cnc(-c4ccccc4)nc32)cc1 [Example 101]
IC50 [1]: 1.3 nM | melting point: 238 to 240 °C

CCN(C(=O)Cn1c(=O)n(C)c2nc(-c3ccsc3)ncc21)c1ccccc1 [Example 40]
IC50 [1]: 1.6 nM | melting point: 226 to 228 °C

CCCN(CCC)C(=O)Cn1c(=O)n(CC)c2cnc(-c3ccc(Cl)cc3)nc21 [Example 116]
IC50 [1]: 2.1 nM | minimal effective dose [2]: 10 µg/kg | melting point: 158 to 159 °C

CCN(Cc1ccccc1)C(=O)Cn1c(=O)n(C)c2nc(-c3ccc(F)cc3)ncc21 [Example 56]
IC50 [1]: 1.4 nM | melting point: 155 to 157 °C

CCN(Cc1cccc(F)c1)C(=O)Cn1c(=O)n(C)c2nc(-c3ccccc3)ncc21 [Example 75]
IC50 [1]: 1.3 nM | melting point: 144 to 145 °C

CCCN(C(=O)Cn1c(=O)n(CC)c2cnc(-c3ccccc3)nc21)c1ccccc1 [Example 170]
IC50 [1]: 1.8 nM | melting point: 151 to 152 °C

CCCN(CCC)C(=O)Cn1c(=O)n(C)c2nc(-c3ccc(F)cc3)ncc21 [Example 29]
IC50 [1]: 4.5 nM | melting point: 154 to 155 °C

CCN(Cc1ccccc1)C(=O)Cn1c(=O)n(CC)c2cnc(-c3ccccc3)nc21 [Example 150]
IC50 [1]: 0.81 nM | melting point: 134 to 136 °C

CCN(C(=O)Cn1c(=O)[nH]c2cnc(-c3ccccc3)nc21)c1ccccc1 [Example 103]
IC50 [1]: 0.8 nM | melting point: 237 to 238 °C

CN(Cc1ccccc1)C(=O)Cn1c(=O)n(C)c2nc(-c3ccc(Cl)cc3)ncc21 [Example 49]
IC50 [1]: 1.4 nM | melting point: 210 to 211 °C

CCN(Cc1ccccc1)C(=O)Cn1c(=O)n(C)c2nc(-c3ccccc3)ncc21 [Example 54]
IC50 [1]: 0.83 nM | melting point: 112 to 115 °C

CN(C(=O)Cn1c(=O)n(C)c2nc(-c3ccccc3)ncc21)c1ccccc1 [Example 2, 8,9-dihydro-9-methyl-N-methyl-8-oxo-2-phenyl-N-phenyl-7H-purin-7-acetamide]
IC50 [1]: 1.2 nM | minimal effective dose [2]: 1 to 3 µg/kg | melting point: 147 to 148 °C

COc1ccc(N(C)C(=O)Cn2c(=O)n(C)c3cnc(-c4ccccc4)nc32)cc1 [Example 163]
IC50 [1]: 0.73 nM | minimal effective dose [2]: 100 µg/kg | melting point: 172 to 174 °C

COc1ccc(-c2ncc3c(n2)n(C)c(=O)n3CC(=O)N(C)Cc2ccccc2)cc1 [Example 51]
IC50 [1]: 1.2 nM | melting point: 205 to 206 °C

CCN(C(=O)Cn1c(=O)n(C)c2nc(-c3cccs3)ncc21)c1ccccc1 [Example 39]
IC50 [1]: 1.3 nM | melting point: 236 to 238 °C

CCN(Cc1ccccc1)C(=O)Cn1c(=O)[nH]c2cnc(-c3ccc(OC)cc3)nc21 [Example 94]
IC50 [1]: 2.7 nM | melting point: 216 to 218 °C

CN(C(=O)Cn1c(=O)[nH]c2cnc(-c3ccccc3)nc21)c1cccc(Cl)c1 [Example 99]
IC50 [1]: 1.4 nM | melting point: 234 to 236 °C

CCN(C(=O)Cn1c(=O)n(C)c2cnc(-c3ccccc3)nc21)c1ccccc1 [Example 166]
IC50 [1]: 1.2 nM | melting point: 180 to 181 °C

CN(Cc1ccccc1)C(=O)Cn1c(=O)n(C)c2nc(-c3ccc(F)cc3)ncc21 [Example 50]
IC50 [1]: 0.79 nM | minimal effective dose [2]: 100 µg/kg | melting point: 170 to 171 °C

CCCN(CCC)C(=O)Cn1c(=O)n(C)c2cnc(-c3ccc(F)cc3)nc21 [Example 113]
IC50 [1]: 0.97 nM | melting point: 140 to 141 °C

CCCN(CCC)C(=O)Cn1c(=O)[nH]c2cnc(-c3ccc(F)cc3)nc21 [Example 81]
IC50 [1]: 5 nM | melting point: 213 to 215 °C

CN(Cc1ccccc1)C(=O)Cn1c(=O)n(C)c2cnc(-c3ccccc3)nc21 [Example 136, N-benzyl-7,8-dihydro-N-methyl-7-methyl-8-oxo-2-phenyl-9H-purin-9-acetamide]
IC50 [1]: 0.66 nM | melting point: 169 to 170 °C

CCN(Cc1ccccc1)C(=O)Cn1c(=O)n(CC)c2cnc(-c3ccc(Cl)cc3)nc21 [Example 151]
IC50 [1]: 2.3 nM | melting point: 157 to 158 °C

CCN(C(=O)Cn1c(=O)n(C)c2nc(-c3ccc(F)cc3)ncc21)c1ccccc1 [Example 12, N-ethyl-8,9-dihydro-2-(4-fluorophenyl)-9-methyl-8-oxo-N-phenyl-7H-purin-7-acetamide]
IC50 [1]: 1.5 nM | minimal effective dose [2]: 10 µg/kg | melting point: 211 to 212 °C

CN(Cc1ccccc1)C(=O)Cn1c(=O)n(C)c2cnc(-c3ccc(Cl)cc3)nc21 [Example 137, N-benzyl-7,8-dihydro-N-methyl-7-methyl-8-oxo-2-(4-chlorophenyl)-9H-purin-9-acetamide]
IC50 [1]: 1.3 nM | minimal effective dose [2]: 1 to 3 µg/kg | melting point: 241 to 242 °C

CCn1c(=O)n(CC(=O)N(C)c2ccccc2)c2nc(-c3cccnc3)ncc21 [Example 172]
IC50 [1]: 3.5 nM | melting point: 199 to 200 °C

CN(C(=O)Cn1c(=O)n(C)c2nc(-c3ccc(F)cc3)ncc21)c1ccccc1 [Example 5, 8,9-dihydro-2-(4-fluorophenyl)-9-methyl-N-methyl-8-oxo-N-phenyl-7H-purin-7-acetamide]
IC50 [1]: 1.3 nM | minimal effective dose [2]: 1 to 3 µg/kg | melting point: 169 to 170 °C
